In ChEMBL document CHEMBL2157929, “Synthesis and structure-activity relationship of fused-pyrimidine derivatives as a series of novel GPR119 agonists” (Bioorg Med Chem, 2012):
Converted amounts (≈) assume the structure as drawn.

How the values were obtained:
[1] = target: T1, Glucose-dependent insulinotropic receptor (Homo sapiens) (UniProt Q8TDV5); assay: Agonist activity at human recombinant GPR119 expressed in HEK293 cells co-expressing pCRE-Luc at 10 uM after 6 hrs by cAMP reporter assay relative to 2-(2-(4-bromophenyl)-6-methylpyrimidin-4-ylamino)ethanol; type: functional, cell-based
T1 sequence (whole entry): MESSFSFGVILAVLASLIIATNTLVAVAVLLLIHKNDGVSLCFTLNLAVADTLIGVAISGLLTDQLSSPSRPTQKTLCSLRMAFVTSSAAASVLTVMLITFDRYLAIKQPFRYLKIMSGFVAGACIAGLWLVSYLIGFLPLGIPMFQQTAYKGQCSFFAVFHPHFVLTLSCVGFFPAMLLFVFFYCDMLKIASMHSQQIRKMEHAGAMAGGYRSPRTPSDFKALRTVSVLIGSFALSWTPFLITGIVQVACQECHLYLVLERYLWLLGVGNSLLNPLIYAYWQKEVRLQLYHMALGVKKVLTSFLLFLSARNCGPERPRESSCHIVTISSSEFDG

[2] = target: T1, Glucose-dependent insulinotropic receptor (Homo sapiens); assay: Agonist activity at human recombinant GPR119 expressed in HEK293 cells co-expressing pCRE-Luc assessed as concentration required to showing equipotent efficacy to 2-(2-(4-bromophenyl)-6-methylpyrimidin-4-ylamino)ethanol after 6 hrs by cAMP reporter assay; type: functional, cell-based
[3] = tested on: Mus musculus; assay: Antihyperglycemic activity in ICR mouse assessed as reduction of blood glucose level at 1 mg/kg, po after 30 mins by oral glucose tolerance test; type: functional; parameters: scale not given: the % may be the effect or the level left
[4] = tested on: Mus musculus; assay: Antihyperglycemic activity in po dosed ICR mouse assessed as reduction of blood glucose level after 30 mins by oral glucose tolerance test; type: functional; details: 0.5 h, read-out: MED
[5] = Solubility of compound at pH 6.8 after 20 hrs by precipitation method; type: physicochemical; details: buffer
[6] = tested on: Mus musculus; assay: Antihyperglycemic activity in ICR mouse assessed as reduction of blood glucose level at 3 mg/kg, po after 30 mins by oral glucose tolerance test; type: functional; parameters: scale not given: the % may be the effect or the level left
[7] = tested on: Mus musculus; assay: Antihyperglycemic activity in ICR mouse assessed as reduction of blood glucose level at 0.3 mg/kg, po after 30 mins by oral glucose tolerance test; type: functional; parameters: scale not given: the % may be the effect or the level left
[8] = Clearance in human liver microsomes; type: ADME, Microsome; details: read-out: CLH
[9] = Inhibition of cytochrome P450 up to 50 uM; type: ADME
[10] = tested on: Mus musculus; assay: Antihyperglycemic activity in ICR mouse assessed as reduction of blood glucose level at 0.1 mg/kg, po after 30 mins by oral glucose tolerance test; type: functional; parameters: scale not given: the % may be the effect or the level left

| SMILES | Intrinsic activity [1] [%] | EC [2] [nM] | Activity [3] [%] | minimal effective dose [4] [mg/kg] | solubility kinetic at 20 h [5] [µM] | Activity [6] [%] | Activity [7] [%] | CLint scaled [8] [mL/min/kg] | inhibition (INH) [9] | Activity [10] [%] |
| --- | --- | --- | --- | --- | --- | --- | --- | --- | --- | --- |
| Fc1cc(-c2nc3c(c(N4CCOCC4)n2)SCC3)c(F)cc1Cl | 426 | 57 |  |  |  |  |  |  |  |  |
| NC(=O)C1CCN(c2nc(-c3cc(F)c(Cl)cc3F)nc3c2CS(=O)(=O)C3)CC1 | 294 | 21 | 12 | 3 | 40 (≈ 17.7 µg/mL) |  |  |  |  |  |
| Fc1cc(-c2nc3c(c(N4CCOCC4)n2)CCCC3)c(F)cc1Cl | 313 | 770 |  |  |  |  |  |  |  |  |
| CN(C)C(=O)C1CCN(c2nc(-c3cc(F)c(Cl)cc3F)nc3c2CS(=O)(=O)C3)CC1 | 292 | 350 | 32 | 1 | > 100 |  |  |  |  |  |
| O=C(O)C1CCN(c2nc(-c3cc(F)c(Cl)cc3F)nc3c2CS(=O)(=O)C3)CC1 | 528 | 560 |  | > 3 |  | 15 |  |  |  |  |
| O=S1(=O)Cc2nc(-c3cc(F)c(Cl)cc3F)nc(N3CCC(O)CC3)c2C1 | 575 | 14 | 32 | 1 | 91 (≈ 37.8 µg/mL) |  |  |  |  |  |
| O=S1(=O)Cc2nc(-c3cc(F)c(Cl)cc3F)nc(N3CCC(CCO)CC3)c2C1 | 506 | 2.8 | 29 | 1 | 23 (≈ 10.2 µg/mL) |  |  |  |  |  |
| O=S1(=O)Cc2nc(-c3cc(F)c(Cl)cc3F)nc(N3CCOCC3)c2C1 | 668 | 28 | 30 | 1 | < 1 |  |  |  |  |  |
| Fc1cc(-c2nc3c(c(N4CCOCC4)n2)CCS3)c(F)cc1Cl | 258 | 970 |  |  |  |  |  |  |  |  |
| NC(=O)CN1CCN(c2nc(-c3cc(F)c(Cl)cc3F)nc3c2CS(=O)(=O)C3)CC1 | 737 | 44 | 17 | 3 | > 100 |  |  |  |  |  |
| Fc1cc(-c2nc3c(c(N4CCOCC4)n2)CSC3)c(F)cc1Cl | 467 | 150 |  |  |  |  |  |  |  |  |
| Fc1cc(-c2nc3c(c(N4CCOCC4)n2)COC3)c(F)cc1Cl | 205 | 4100 |  |  |  |  |  |  |  |  |
| CNC(=O)C1CCN(c2nc(-c3cc(F)c(Cl)cc3F)nc3c2CS(=O)(=O)C3)CC1 | 457 | 51 |  | 3 | 11 (≈ 5.03 µg/mL) |  |  |  |  |  |
| Fc1cc(-c2nc3c(c(N4CCOCC4)n2)CCC3)c(F)cc1Cl | 405 | 350 |  |  |  |  |  |  |  |  |
| NC(=O)CCC1CCN(c2nc(-c3cc(F)c(Cl)cc3F)nc3c2CS(=O)(=O)C3)CC1 | 627 | 18 |  | 0.3 | 8 (≈ 3.77 µg/mL) |  | 30 |  |  |  |
| O=S1(=O)Cc2nc(-c3cc(F)c(Cl)cc3F)nc(N3CCC(CO)CC3)c2C1 | 501 | 3.9 | 29 | 0.3 | 16 (≈ 6.88 µg/mL) |  |  |  |  |  |
| NC(=O)CC1CCN(c2nc(-c3cc(F)c(Cl)cc3F)nc3c2CS(=O)(=O)C3)CC1 | 483 | 8.3 | 35 | 0.1 | 15 (≈ 6.85 µg/mL) |  |  | 58 | Not Active | 27 |
